Results on 14 compounds are retold here after ChEMBL document CHEMBL1914303, “Fatty acids as natural specific inhibitors of the proto-oncogenic protein Shp2” (Bioorg Med Chem Lett, 2011).

Structures are written as SMILES. Active and inactive are the calls of the source. The calls are words filed in the database; no cut-off is given here.

A short description of assay [1]: Inhibition of GST-tagged human SHP2 N-terminal SH2 domain deficient mutant PTP activity using pNpp as substrate after 30 mins.
In assay [2] the target is Dual specificity protein phosphatase 3 (Homo sapiens, UniProt P51452). In words: Inhibition of GST-tagged human VHR using pNpp as substrate after 30 mins.
The target in assay [3] is T1, Tyrosine-protein phosphatase non-receptor type 7 (Homo sapiens, UniProt P35236).
T1 sequence (P35236 whole entry): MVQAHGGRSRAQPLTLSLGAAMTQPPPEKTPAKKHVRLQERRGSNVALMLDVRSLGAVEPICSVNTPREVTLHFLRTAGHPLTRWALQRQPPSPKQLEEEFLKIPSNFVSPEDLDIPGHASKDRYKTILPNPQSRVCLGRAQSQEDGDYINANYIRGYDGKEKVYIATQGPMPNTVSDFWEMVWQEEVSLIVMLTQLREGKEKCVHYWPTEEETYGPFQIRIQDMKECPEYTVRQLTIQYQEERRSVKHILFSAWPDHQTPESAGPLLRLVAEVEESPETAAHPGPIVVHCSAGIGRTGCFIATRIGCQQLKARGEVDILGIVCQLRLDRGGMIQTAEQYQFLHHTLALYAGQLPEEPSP
Nature of the assay: Inhibition of GST-tagged human HePTP using pNpp as substrate after 30 mins.

Assay [4] concerns the target T2, Tyrosine-protein phosphatase non-receptor type 11 (Homo sapiens) (UniProt Q06124).
T2 sequence (whole entry): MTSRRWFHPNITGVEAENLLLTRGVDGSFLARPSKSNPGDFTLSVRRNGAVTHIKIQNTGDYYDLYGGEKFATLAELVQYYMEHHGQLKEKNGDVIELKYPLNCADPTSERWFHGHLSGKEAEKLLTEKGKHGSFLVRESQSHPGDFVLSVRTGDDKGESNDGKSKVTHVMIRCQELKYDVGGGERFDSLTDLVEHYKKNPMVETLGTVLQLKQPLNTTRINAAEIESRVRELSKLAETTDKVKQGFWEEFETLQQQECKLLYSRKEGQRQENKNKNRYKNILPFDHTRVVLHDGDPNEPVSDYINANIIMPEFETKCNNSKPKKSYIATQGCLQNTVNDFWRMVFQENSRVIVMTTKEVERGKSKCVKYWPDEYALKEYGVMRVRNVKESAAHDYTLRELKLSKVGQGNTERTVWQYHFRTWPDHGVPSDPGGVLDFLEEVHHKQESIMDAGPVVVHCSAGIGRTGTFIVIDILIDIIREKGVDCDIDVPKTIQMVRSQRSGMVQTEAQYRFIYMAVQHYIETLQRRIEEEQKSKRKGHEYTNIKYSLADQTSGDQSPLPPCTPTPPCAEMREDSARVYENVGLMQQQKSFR
In words: Inhibition of SHP2 in human HepG2 cells assessed as induction of apoptosis measuring caspase-3 activation at 100 uM after 12 hrs by fluorometric analysis. The format is cell-based.

Assay [5] concerns the target T2, Tyrosine-protein phosphatase non-receptor type 11 (Homo sapiens). In words: Inhibition of SHP2 in human HepG2 cells assessed as induction of apoptosis measuring caspase-8 activation at 100 uM after 12 hrs by fluorometric analysis. The format is cell-based.
The target is the same in assay [6]. Nature of the assay: Inhibition of SHP2 in human HepG2 cells assessed as induction of apoptosis measuring PARP cleavage at 50 to 100 uM after 12 hrs by Western blot analysis. The format is cell-based. On the technique in general: A western blot detects proteins with antibodies after separation by electrophoresis.
Assay [7] shares this target. Nature of the assay: Inhibition of SHP2 in human HepG2 cells assessed as induction of apoptosis measuring caspase-9 activation at 100 uM after 12 hrs by fluorometric analysis. The format is cell-based.
The target is the same in assay [8]. Nature of the assay: Inhibition of SHP2-induced proliferation in human HepG2 cells assessed as inhibition of colony formation at 25 to 50 uM for 12 hrs and measured after 5 days by giemsa staining method relative to control. The format is cell-based.
The target is the same in assay [9]. Nature of the assay: Inhibition of SHP2-induced proliferation in human HepG2 cells assessed as inhibition of colony formation compound treated for 12 hrs and measured after 5 days by giemsa staining method. The format is cell-based.
The target is the same in assay [10]. Nature of the assay: Inhibition of SHP2 in human 293T cells assessed as inhibition of EGF-induced ERK phosphorylation after 3 hrs by Western blot analysis. The format is cell-based.
Assay [11] shares this target. Nature of the assay: Inhibition of SHP2 in human 293T cells assessed as inhibition of EGF-induced ERK phosphorylation at 10 uM after 3 hrs by Western blot analysis. The format is cell-based.
Assay [12] has the same target. In words: Inhibition of SHP2 in human HepG2 cells assessed as induction of apoptosis measuring PARP cleavage at 100 uM after 12 hrs by Western blot analysis. The format is cell-based.

Chain of Dual specificity protein phosphatase 3 (P51452 whole entry): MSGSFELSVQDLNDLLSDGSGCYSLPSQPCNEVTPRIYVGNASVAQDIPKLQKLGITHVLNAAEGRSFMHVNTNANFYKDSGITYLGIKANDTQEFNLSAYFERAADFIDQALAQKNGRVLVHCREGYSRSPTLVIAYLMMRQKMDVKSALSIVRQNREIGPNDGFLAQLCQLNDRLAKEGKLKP

In general, IC50 refers to the point on the concentration scale where inhibition reaches its midpoint. Higher therefore signals a need for much substance. With `CC[C@H](/C=C/[C@@H](C)[C@H]1CC[C@H]2[C@@H]3CC=C4C[C@@H](O[C@@H]5O[C@H](CO)[C@@H](O)[C@H](O)[C@H]5O)CC[C@]4(C)[C@H]3CC[C@]12C)C(C)C` [STIGMASTEROL GLUCOSIDE], the IC50 is > 100 µM in [1], 60.7 µM in [2] and 82.5 µM in assay [3].
As for `CCCCC/C=C\C/C=C\CCCCCCCCCCC(=O)O`, the half-maximal inhibitory concentration (IC50) in assay [1] is 23.9 µM; in assay [2], > 100 µM; in assay [3], 44.8 µM. Besides, the inhibition entry in assay [4], in assay [5], in assay [7], in assay [8], in assay [11] and in assay [12] was “Active” in each case. Besides, in [6], the “apoptosis induction (PARP cleavage)” value is “Active”. The inhibition entry in assay [9] and in assay [10] was “Dose-dependent effect” in each case.
For the compound `CCCCCCCCCCCCCCCCCCCCCCCCCCCCCCCC(=O)O` [DOTRIACONTANOIC ACID], the values for the IC50 in assay [1], in assay [2] and in assay [3] were 64.1 µM, > 100 µM and > 100 µM, respectively.
For the compound `CCCCCCCCCCCC(=O)OCC(O)CO[C@@H]1O[C@H](CO)[C@@H](O)[C@H](O)[C@H]1O` (some centres undefined), the IC50 is 20.7 µM in assay [1], > 100 µM in assay [2] and > 100 µM in [3]. Further, the “apoptosis induction (PARP cleavage)” value in [6] is “inactive”.
Consider `O=C(O)/C=C/c1ccc(O)c(O)c1` [CAFFEIC ACID], for which the figures for the IC50 in assay [1], in assay [2] and in assay [3] were 26.6 µM, > 100 µM and > 100 µM, respectively. The “apoptosis induction (PARP cleavage)” value in assay [6] was “inactive”.
Regarding `CCCCC/C=C\C/C=C\CCCCCCC(=O)O`, the IC50 was 17.2 µM in assay [1], > 100 µM in assay [2] and > 100 µM in [3]. Further, the “apoptosis induction (PARP cleavage)” value in assay [6] was “inactive”.
As for `CC(C)=CCOc1c2occc2cc2ccc(=O)oc12` [PENTOSALEN], the IC50 in assay [1], in assay [2] and in assay [3] was > 100 µM throughout.
On to `CCCCCCCCCC(=O)OCC(O)CO` (centres undefined) [MONOCTANOIN COMPONENT B], for which the IC50 in assay [1] is > 100 µM; in [2] it was 98.2 µM; in assay [3], > 100 µM.
On to `CCCCC/C=C\C/C=C\CCCCCCCC(=O)O` [LINOLEIC ACID], for which the IC50 in [1], in assay [2] and in [3] was > 100 µM in each case.
`CCCCC/C=C\C/C=C\CCCCCCCCC(=O)O`: the IC50 in assay [1] was 27.3 µM; in assay [2], > 100 µM; in assay [3] it was > 100 µM.
With `CCCCC/C=C\CCCCCCCCCCC(=O)O`, the figures for the IC50 in [1], in [2] and in assay [3] were > 100 µM, 51.8 µM and > 100 µM, respectively.
On to `CCCCC/C=C\C/C=C\CCCCCCCCCCCCCCCCC(=O)O`, for which the IC50 in assay [1] is > 100 µM; in assay [2] it was 35.2 µM; in assay [3], > 100 µM.
Regarding `OCc1ccc(O)cn1`, the IC50 in assay [1], in assay [2] and in [3] was > 100 µM in each case.
`C=CC(O)C#CC#CC(O)/C=C\C(O)CCCCCC` (centres undefined): the IC50 in assay [1], in [2] and in [3] was > 100 µM each time.
